# Where “and” joins values, the source holds several entries; their conditions need not be identical. Identical values can stand only once.
# Key:
# D2LR [1] = biological target: T1, D2LR (Homo sapiens, UniProt P14416); test: Inhibition of forskolin-induced cAMP production (BRET CAMYEL biosensor); settings: for Emax cAMP: relative to the maximal response of ropinirole; for Inhibition of cAMP production measured using a CAMYEL BRET biosensor, Net BRET: single experiments n = 1, 2, 3
# Method: Flp-In-CHO cells stably expressing the D2LR were seeded at a density of 2,000,000 cells per 10-cm dish and were transfected the following day using polyethylenimine as the transfection reagent. The cells were transfected with 3 μg CAMYEL, to allow the detection of cAMP levels within the cells. Twenty-four hours after transfection, the cells were plated into 96-well CulturPlates (PerkinElmer) and grown overnight. The cells were equilibrated in Hank's balanced salt solution at 37 °C (or 25 °C when indicated) before starting the experiment. The cells were co-stimulated with the agonists and 10 μM forskolin for the indicated timeframes when the BRET readings were captured. Coelenterazine (Promega) was added at a final concentration of 5 μM at least 3 min before measurement. […] Net BRET was determined by subtraction of the vehicle control co-added with 10 μM forskolin.
# D2LR [2] = biological target: T1, D2LR; test: ERK1/2 phosphorylation assay (Alphascreen SureFire); type: cell-based; set-up: expressed in transfected cells; settings: agonist 10 μM (cariprazine 1 μM), single experiments n=1 to n=4
# Method: ERK1/2 phosphorylation was measured using the Alphascreen SureFire ERK kit (PerkinElmer, Waltham, USA). Cells were seeded into 96-well plates at a density of 50,000 cells per well. After 5–7 h, cells were washed with PBS and incubated in serum-free DMEM overnight before assaying. Dose–response experiments were performed for each ligand at 37 °C in the presence of 0.1% ascorbic acid. […] The plate was shaken for 5 min at room temperature (RT) before transferring 5 μl of the lysates to a white 384-well Proxiplate (PerkinElmer, Waltham, USA). […] Plates were read using a Fusion-TM plate reader (PerkinElmer, Waltham, USA).
# T1 sequence (P14416 whole entry): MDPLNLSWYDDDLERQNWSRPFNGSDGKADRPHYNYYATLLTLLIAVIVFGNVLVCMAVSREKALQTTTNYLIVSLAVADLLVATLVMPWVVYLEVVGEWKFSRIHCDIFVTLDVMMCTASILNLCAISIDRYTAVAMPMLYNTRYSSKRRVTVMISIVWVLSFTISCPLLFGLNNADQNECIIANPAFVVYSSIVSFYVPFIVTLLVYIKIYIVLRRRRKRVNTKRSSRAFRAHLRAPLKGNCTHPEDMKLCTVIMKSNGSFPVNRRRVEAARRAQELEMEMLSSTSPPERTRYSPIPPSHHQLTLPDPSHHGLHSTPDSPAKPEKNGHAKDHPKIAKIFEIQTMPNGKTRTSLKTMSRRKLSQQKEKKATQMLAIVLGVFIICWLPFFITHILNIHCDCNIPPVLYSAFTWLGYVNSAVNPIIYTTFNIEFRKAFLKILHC
structure (smiles),measurement,setting,value
"CCCN1CCC[C@@H](c2cccc(O)c2)C1 [S-3PPP, (S)-(-)-3-(3-hydroxyphenyl)-N-propylpiperidine]",Emax cAMP,D2LR [1]; 2 min,73 ± 1.9
same,Emax cAMP,D2LR [1]; 5 min,73 ± 2.0
same,Log(τ/KA) cAMP,"D2LR [1]; 5 minute timepoint, Flp-In-CHO-D2LR",6.65 ± 0.06
same,ΔLog(τ/KA) cAMP,"D2LR [1]; 5 minute timepoint, dopamine as reference agonist",-1.40 ± 0.08
same,Emax cAMP,D2LR [1]; 10 min,70 ± 1.7
same,Emax cAMP,D2LR [1]; 15 min,70 ± 1.9
same,Emax cAMP,D2LR [1]; 30 min,71 ± 2.5
same,Emax cAMP,D2LR [1]; 45 min,64 ± 1.4
same,Emax cAMP,D2LR [1]; 60 min,53 ± 2.4
same,Emax cAMP,D2LR [1]; 75 min,66 ± 1.4
same,Emax cAMP,D2LR [1]; 90 min,60 ± 0.8
same,"Inhibition of cAMP production measured using a CAMYEL BRET biosensor, Net BRET",D2LR [1]; time 2.21667 mins,0.05465 and 0.08466 and 0.07325
same,"Inhibition of cAMP production measured using a CAMYEL BRET biosensor, Net BRET",D2LR [1]; time 2.58333 mins,0.05879 and 0.0813 and 0.07011
same,"Inhibition of cAMP production measured using a CAMYEL BRET biosensor, Net BRET",D2LR [1]; time 2.95 mins,0.05876 and 0.09107 and 0.0617
same,"Inhibition of cAMP production measured using a CAMYEL BRET biosensor, Net BRET",D2LR [1]; time 3.31667 mins,0.05926 and 0.0872 and 0.07317
same,"Inhibition of cAMP production measured using a CAMYEL BRET biosensor, Net BRET",D2LR [1]; time 3.68333 mins,0.06005 and 0.08327 and 0.07534
same,"Inhibition of cAMP production measured using a CAMYEL BRET biosensor, Net BRET",D2LR [1]; time 4.05 mins,0.08108 and 0.08891 and 0.07666
same,"Inhibition of cAMP production measured using a CAMYEL BRET biosensor, Net BRET",D2LR [1]; time 4.41667 mins,0.07291 and 0.08859 and 0.07671
same,"Inhibition of cAMP production measured using a CAMYEL BRET biosensor, Net BRET",D2LR [1]; time 4.78333 mins,0.08207 and 0.09068 and 0.07598
same,"Inhibition of cAMP production measured using a CAMYEL BRET biosensor, Net BRET",D2LR [1]; time 5.15 mins,0.088 and 0.08877 and 0.07517
same,"Inhibition of cAMP production measured using a CAMYEL BRET biosensor, Net BRET",D2LR [1]; time 5.51667 mins,0.08023 and 0.0868 and 0.07779
same,"Inhibition of cAMP production measured using a CAMYEL BRET biosensor, Net BRET",D2LR [1]; time 5.88333 mins,0.08241 and 0.08562 and 0.08229
same,"Inhibition of cAMP production measured using a CAMYEL BRET biosensor, Net BRET",D2LR [1]; time 6.25 mins,0.0777 and 0.08078 and 0.07833
same,"Inhibition of cAMP production measured using a CAMYEL BRET biosensor, Net BRET",D2LR [1]; time 6.61667 mins,0.07786 and 0.08188 and 0.07763
same,"Inhibition of cAMP production measured using a CAMYEL BRET biosensor, Net BRET",D2LR [1]; time 6.98333 mins,0.08463 and 0.08155 and 0.08058
same,"Inhibition of cAMP production measured using a CAMYEL BRET biosensor, Net BRET",D2LR [1]; time 7.35 mins,0.08243 and 0.07743 and 0.07354
same,"Inhibition of cAMP production measured using a CAMYEL BRET biosensor, Net BRET",D2LR [1]; time 7.71667 mins,0.08152 and 0.0852 and 0.08224
same,"Inhibition of cAMP production measured using a CAMYEL BRET biosensor, Net BRET",D2LR [1]; time 8.08333 mins,0.08811 and 0.08583 and 0.07638
same,"Inhibition of cAMP production measured using a CAMYEL BRET biosensor, Net BRET",D2LR [1]; time 8.45 mins,0.08386 and 0.08753 and 0.07171
same,"Inhibition of cAMP production measured using a CAMYEL BRET biosensor, Net BRET",D2LR [1]; time 8.81667 mins,0.09076 and 0.08128 and 0.08398
same,"Inhibition of cAMP production measured using a CAMYEL BRET biosensor, Net BRET",D2LR [1]; time 9.18333 mins,0.08865 and 0.08603 and 0.07348
same,"Inhibition of cAMP production measured using a CAMYEL BRET biosensor, Net BRET",D2LR [1]; time 9.55 mins,0.08292 and 0.0837 and 0.08159
same,"Inhibition of cAMP production measured using a CAMYEL BRET biosensor, Net BRET",D2LR [1]; time 9.91667 mins,0.09198 and 0.07873 and 0.08223
same,"Inhibition of cAMP production measured using a CAMYEL BRET biosensor, Net BRET",D2LR [1]; time 10.2833 mins,0.08942 and 0.08142 and 0.08126
same,"Inhibition of cAMP production measured using a CAMYEL BRET biosensor, Net BRET",D2LR [1]; time 10.65 mins,0.09447 and 0.08477 and 0.08651
same,"Inhibition of cAMP production measured using a CAMYEL BRET biosensor, Net BRET",D2LR [1]; time 11.0167 mins,0.09406 and 0.0745 and 0.08653
same,"Inhibition of cAMP production measured using a CAMYEL BRET biosensor, Net BRET",D2LR [1]; time 11.3833 mins,0.09952 and 0.0798 and 0.08963
same,"Inhibition of cAMP production measured using a CAMYEL BRET biosensor, Net BRET",D2LR [1]; time 11.75 mins,0.09797 and 0.09183 and 0.0831
same,"Inhibition of cAMP production measured using a CAMYEL BRET biosensor, Net BRET",D2LR [1]; time 12.1167 mins,0.0995 and 0.08775 and 0.0921
same,"Inhibition of cAMP production measured using a CAMYEL BRET biosensor, Net BRET",D2LR [1]; time 12.4833 mins,0.08767 and 0.08489 and 0.09746
same,"Inhibition of cAMP production measured using a CAMYEL BRET biosensor, Net BRET",D2LR [1]; time 12.85 mins,0.09546 and 0.09264 and 0.08756
same,"Inhibition of cAMP production measured using a CAMYEL BRET biosensor, Net BRET",D2LR [1]; time 13.2167 mins,0.09597 and 0.0888 and 0.1009
same,"Inhibition of cAMP production measured using a CAMYEL BRET biosensor, Net BRET",D2LR [1]; time 13.5833 mins,0.09698 and 0.09198 and 0.09379
same,"Inhibition of cAMP production measured using a CAMYEL BRET biosensor, Net BRET",D2LR [1]; time 13.95 mins,0.09269 and 0.09222 and 0.0998
same,"Inhibition of cAMP production measured using a CAMYEL BRET biosensor, Net BRET",D2LR [1]; time 14.3167 mins,0.1016
same,"alpahscreen assay to detect pERK1/2, counts",D2LR [2]; time 7.5 mins,7.838 counts and 8.667 counts and 10.676 counts and 8.644 counts
same,"alpahscreen assay to detect pERK1/2, counts",D2LR [2]; time 10 mins,7.633 counts and 9.485 counts and 6.489 counts and 6.6386 counts
same,"alpahscreen assay to detect pERK1/2, counts",D2LR [2]; time 15 mins,3.509 counts and 3.085 counts and 2.82 counts and 2.443 counts
same,"alpahscreen assay to detect pERK1/2, counts",D2LR [2]; time 20 mins,2.3 counts and 2.162 counts and 3.001 counts and 1.823 counts
same,"alpahscreen assay to detect pERK1/2, counts",D2LR [2]; time 30 mins,1.331 counts and 1.287 counts and 2.069 counts and 1.34 counts

# Source: PMC4770093, “The role of kinetic context in apparent biased agonism at GPCRs” (Nature Communications, 2016)
